Measurements published in article PMC12399242 (Acta Pharmaceutica Sinica. B, 2025).
Structures can show the parent of a compound that is named as a salt. Where two headings read alike, the source gives them in different places.

Tests used:
WT HIV-1 RT = WT HIV-1 RT (Human immunodeficiency virus type 1 group M subtype B, UniProt P03366); test: Inhibition of WT HIV-1 RT polymerase activity
Experimental: The anti-HIV-1 activity of A1–A24 and B1–B22 at the cellular or enzyme level were evaluated following our previously reported method[15].

[1] = test system: HIV-1 K103N + Y181C (RES056); test: Antiviral activity against HIV-1 double mutant K103N + Y181C (RES056) in MT-4 cells; type: cell-based
HIV-1 K103N = test: Antiviral activity against HIV-1 mutant K103N in MT-4 cells; type: cell-based
HIV-1 (IIIB) [2] = test: microbe, parasite or virus in culture; type: cell-based; details: for EC50: mean ± SD, n ≥ 3; for SI (IIIB): selectivity index, ratio CC50/EC50
Source text: (§1) Inspired by our previous research on heteroaromatic-biphenyl-DAPYs[15], the 4-cyanophenyl group on the biphenyl moiety was replaced with a privileged 4-pyridyl group for further evaluation.

MT-4 cells [3] = test: in vitro
Source text: as §1

in vitro = details: human, CC50
Source text: as §1

HIV-1 F227L + V106A [4] = test: microbe, parasite or virus in culture; type: cell-based
HIV-1 Y188L [5] = test: Antiviral activity against HIV-1 mutant Y188L in MT-4 cells; type: cell-based
HIV-1 Y181C = test: Antiviral activity against HIV-1 mutant Y181C in MT-4 cells; type: cell-based
HIV-1 E138K = test: Antiviral activity against HIV-1 mutant E138K in MT-4 cells; type: cell-based
HIV-1 L100I = test: Antiviral activity against HIV-1 mutant L100I in MT-4 cells; type: cell-based
CYP2D6 = target: T1, CYP2D6 (Homo sapiens, UniProt P10635); test: CYP enzyme inhibition assay, CYP2D6; type: in vitro ADME; details: IC50 CYP2D6, human liver microsomes
T1 construct: An incubation system of human liver microsomes (20 μL, 1.5 mg/mL); from tissue; host or cells: human liver microsomes
Experimental: An incubation system of human liver microsomes (20 μL, 1.5 mg/mL), 20 μL probe substrates, and 50 μL test compound in Tris (0.1 mol/L) was pre-incubated at 37 °C for 10 min, and then initiated by adding NADPH (10 μL, 10 mmol/L). The system was incubated for another 15 min and subsequently terminated by 100 μL MeCN containing internal standard (propranolol, nadolol). Finally, the sample was centrifugated to obtain the supernatant for LC‒MS/MS analysis.

[6] = human liver microsomes; cited from earlier work
MT-4 cells [7] = details: cited from earlier work
CYP3A4-M = CYP3A4-M (Homo sapiens, UniProt P08684); details: read-out: IC50 CYP3A4-M; cited from earlier work
[8] = comparison values; cited from earlier work
HIV-1 (IIIB) [9] = details: earlier compounds of Fig. 1 / introduction, cited from earlier work; for EC50: WT HIV-1
HIV-1 Y188L [10] = details: cited from earlier work
[11] = test system: HIV-1 K103N + Y181C (RES056); details: cited from earlier work
HIV-1 F227L + V106A [12] = details: cited from earlier work
[13] = Human immunodeficiency virus 1, MT4, read-out: EC50 K103N + Y181C
[14] = Human immunodeficiency virus 1, MT4, read-out: EC50 K103N
[15] = Human immunodeficiency virus 1, IIIB, MT4, WT HIV-1, protection of MT-4 cells against HIV-induced cytopathogenicity
[16] = WT HIV-1, protection of MT-4 cells against HIV-induced cytopathogenicity
[17] = Human immunodeficiency virus 1, MT4, read-out: EC50 F227L + V106A
[18] = Human immunodeficiency virus 1, MT4, read-out: EC50 Y188L
[19] = Human immunodeficiency virus 1, MT4, read-out: EC50 Y181C
[20] = Human immunodeficiency virus 1, MT4, read-out: EC50 E138K
[21] = Human immunodeficiency virus 1, MT4, read-out: EC50 L100I
[22] = RES056, MT-4 cells, mean ± SD, n ≥ 3, read-out: EC50 K103N + Y181C
[23] = MT-4 cells, mean ± SD, n ≥ 3, read-out: EC50 K103N
[24] = uninfected MT-4 cells, mean ± SD, n ≥ 3
[25] = MT-4 cells, mean ± SD, n ≥ 3, read-out: EC50 F227L + V106A
[26] = MT-4 cells, mean ± SD, n ≥ 3, read-out: EC50 Y188L
[27] = MT-4 cells, mean ± SD, n ≥ 3, read-out: EC50 Y181C
[28] = MT-4 cells, mean ± SD, n ≥ 3, read-out: EC50 E138K
[29] = MT-4 cells, mean ± SD, n ≥ 3, read-out: EC50 L100I
[30] = earlier compounds of Fig. 1 / introduction

T1 sequence (P10635 whole entry): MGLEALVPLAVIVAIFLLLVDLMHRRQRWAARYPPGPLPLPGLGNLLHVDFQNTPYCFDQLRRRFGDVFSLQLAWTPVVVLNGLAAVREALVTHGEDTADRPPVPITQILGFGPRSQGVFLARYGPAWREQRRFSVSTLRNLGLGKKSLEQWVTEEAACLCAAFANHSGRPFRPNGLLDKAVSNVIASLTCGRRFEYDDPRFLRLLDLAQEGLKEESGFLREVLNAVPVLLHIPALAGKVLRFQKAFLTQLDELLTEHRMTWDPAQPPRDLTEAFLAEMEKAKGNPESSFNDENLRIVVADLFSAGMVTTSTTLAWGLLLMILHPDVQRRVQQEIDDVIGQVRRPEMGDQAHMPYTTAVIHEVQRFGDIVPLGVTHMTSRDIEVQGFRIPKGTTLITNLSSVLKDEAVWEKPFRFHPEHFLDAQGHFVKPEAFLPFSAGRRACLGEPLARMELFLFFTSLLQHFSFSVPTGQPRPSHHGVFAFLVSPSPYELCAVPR
Sequence of CYP3A4-M (P08684 whole entry): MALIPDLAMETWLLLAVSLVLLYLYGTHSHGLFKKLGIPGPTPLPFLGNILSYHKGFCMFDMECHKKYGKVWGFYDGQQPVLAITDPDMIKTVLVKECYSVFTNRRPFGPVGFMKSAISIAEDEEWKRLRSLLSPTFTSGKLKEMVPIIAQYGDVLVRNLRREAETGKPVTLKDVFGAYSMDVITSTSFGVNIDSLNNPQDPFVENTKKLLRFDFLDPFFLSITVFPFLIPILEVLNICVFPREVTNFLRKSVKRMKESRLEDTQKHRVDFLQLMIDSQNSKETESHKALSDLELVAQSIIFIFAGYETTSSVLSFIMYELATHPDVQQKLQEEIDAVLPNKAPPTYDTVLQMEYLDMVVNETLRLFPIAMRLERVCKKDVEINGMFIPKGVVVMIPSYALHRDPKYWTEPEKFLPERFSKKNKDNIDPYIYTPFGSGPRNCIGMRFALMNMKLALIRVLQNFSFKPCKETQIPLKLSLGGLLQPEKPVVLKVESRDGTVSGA

Row | Compound | IC50 (WT HIV-1 RT) [µM] | EC50 [1, 13] [µM] | EC50 (HIV-1 K103N; [14]) [µM] | EC50 (HIV-1 (IIIB) [2]; [15]) [µM] | EC50 (HIV-1 (IIIB) [2]; [16]) [µM] | SI (IIIB) (HIV-1 (IIIB) [2]) | CC50 (MT-4 cells [3]; human) [µM] | CC50 (in vitro) [µM] | EC50 (HIV-1 F227L + V106A [4]; [17]) [µM] | EC50 (HIV-1 Y188L [5]; [18]) [µM] | EC50 (HIV-1 Y181C; [19]) [µM] | EC50 (HIV-1 E138K; [20]) [µM] | EC50 (HIV-1 L100I; [21]) [µM] | EC50 (HIV-1 (IIIB) [9]) [µM] | other results
1 | N#Cc1ccc(Nc2ncc(F)c(Oc3ccc(-c4ccc(C#N)cc4)cc3F)n2)cc1 [A1, 4′-((2-((4-Cyanophenyl)amino)-5-fluoropyrimidin-4-yl)oxy)-3′-fluoro-[1,1′-biphenyl]-4-carbonitrile] | 0.054 ± 0.0094 | > 47 | 0.052 ± 0.042 | ≤ 0.0053 | 0.0042 ± 0.0014 | >10,870 | > 47 | > 45 | > 47 | > 47 | 0.306 ± 0.117 | 0.028 ± 0.012 | 0.174 ± 0.049 | – | –
2 | COc1cc(-c2ccc(C#N)cc2)ccc1Oc1nc(Nc2ccc(C#N)cc2)ncc1F [A4, 4′-((2-((4-Cyanophenyl)amino)-5-fluoropyrimidin-4-yl)oxy)-3′-methoxy-[1,1′-biphenyl]-4-carbonitrile] | 0.046 ± 0.0046 | > 45.7 | 0.0094 ± 0.0027 | ≤ 0.0053 | 0.003 ± 0.0011 | >16,000 | > 46 | > 45 | ≥ 1.6 | 1.37 ± 0.206 | 0.048 ± 0.014 | 0.0078 ± 0.0023 | 0.041 ± 0.025 | – | –
3 | N#Cc1ccc(Nc2ncc(F)c(Nc3ccc(-c4ccc(C#N)cc4)cc3F)n2)cc1 [A7, 4′-((2-((4-Cyanophenyl)amino)-5-fluoropyrimidin-4-yl)amino)-3′-fluoro-[1,1′-biphenyl]-4-carbonitrile] | 0.028 ± 0.0047 | > 47.1 | 0.068 ± 0.038 | – | – | >25,806 | > 47 | > 45 | > 47.1 | > 47.1 | 0.259 ± 0.165 | 0.035 ± 0.017 | 5.44 ± 2.4 | – | –
4 | COc1cc(-c2ccncc2)ccc1Oc1nc(Nc2ccc(C#N)cc2)ncc1F [A16, 4-((5-Fluoro-4-(2-methoxy-4-(pyridin-4-yl)phenoxy)pyrimidin-2-yl)amino)benzonitrile] | 0.034 ± 0.0024 | > 48.4 | 0.012 ± 0.0039 | ≤ 0.0053 | 0.0031 ± 0.0022 | >15,094 | > 48 | > 45 | 1.23 ± 0.556 | 1.52 ± 0.556 | 0.104 ± 0.017 | 0.013 ± 0.0034 | 0.039 ± 0.0097 | – | –
5 | COc1ccc2c(c1)[C@]13CCCC[C@@H]1[C@H](C2)N(C)CC3 [Dextromethorphan, reference compound] | – | – | – | – | – | – | – | – | – | – | – | – | – | – | IC50 (CYP2D6): 0.224 µM
6 | O=C1Nc2ccc(Cl)cc2[C@@](C#CC2CC2)(C(F)(F)F)O1 [EFV, reference compound] | – | – | – | – | 0.0038 ± 0.001 | >1618 | – | – | – | – | – | – | – | – | EC50 [1, 22]: 0.314 ± 0.146 µM; EC50 (HIV-1 K103N; [23]): 0.06 ± 0.019 µM; CC50 (MT-4 cells [3]; [24]): > 6.3 µM; EC50 (HIV-1 F227L + V106A [4]; [25]): 0.181 ± 0.089 µM; EC50 (HIV-1 Y188L [5]; [26]): 0.244 ± 0.095 µM; EC50 (HIV-1 Y181C; [27]): 0.0063 ± 0.0025 µM; EC50 (HIV-1 E138K; [28]): 0.0054 ± 0.0016 µM; EC50 (HIV-1 L100I; [29]): 0.024 ± 0.0095 µM
7 | Cc1cc(C#N)cc(C)c1Oc1nc(Nc2ccc(C#N)cc2)nc(N)c1Br [ETR, etravirine, reference compound] | – | 0.044 ± 0.023 | 0.0028 ± 0.0007 | 0.0032 ± 0.0007 | – | – | – | > 4.6 | 0.012 ± 0.0094 | – | 0.013 ± 0.0028 | 0.0076 ± 0.0023 | 0.0044 ± 0.0016 | – | CLint(liver) [6]: 19.0 mL/min/kg; CLint(mic) [6]: 21.1 µL/min/mg; t1/2 [6]: 65.5 min; CC50 (MT-4 cells [7]; introduction): ~5 µM; IC50 (CYP3A4-M): 41.3 µM; F (oral bioavailability) [8]: undetectable
8 | Cc1ccnc2c1NC(=O)c1cccnc1N2C1CC1 [NVP, reference compound] | – | – | – | – | 0.188 ± 0.068 | – | – | – | – | – | – | – | – | – | EC50 [1, 22]: > 15 µM; EC50 (HIV-1 K103N; [23]): 5.86 ± 2.78 µM; CC50 (MT-4 cells [3]; [24]): > 15 µM; EC50 (HIV-1 F227L + V106A [4]; [25]): > 15 µM; EC50 (HIV-1 Y188L [5]; [26]): > 15 µM; EC50 (HIV-1 Y181C; [27]): 9.01 ± 2.63 µM; EC50 (HIV-1 E138K; [28]): 0.143 ± 0.038 µM; EC50 (HIV-1 L100I; [29]): 1.8 ± 1.43 µM
9 | Cc1cc(/C=C/C#N)cc(C)c1Nc1ccnc(Nc2ccc(C#N)cc2)n1 [RPV · HCl, rilpivirine HCl] | – | – | – | – | – | – | – | – | – | – | – | – | – | – | F (oral bioavailability) [8]: 32%
10 | Cc1cc(/C=C/C#N)cc(C)c1Nc1ccnc(Nc2ccc(C#N)cc2)n1 [RPV, rilpivirine] | – | – | – | – | – | – | – | – | – | – | – | – | – | 0.001 | CLint(liver) [6]: 97.6 mL/min/kg; CLint(mic) [6]: 108.4 µL/min/mg; t1/2 [6]: 12.8 min; CC50 (MT-4 cells [7]; introduction): ~5 µM
11 | N#Cc1ccc(Nc2nccc(Nc3c(F)cc(-c4ccc(C#N)cc4)cc3F)n2)cc1 [compound 4] | – | – | – | – | – | – | – | – | – | – | – | – | – | 0.0013 | CC50 (MT-4 cells [7]; [30]): > 294 µM; SI (HIV-1 (IIIB) [9]): > 238,095
12 | CN(c1ccnc(Nc2ccc(C#N)cc2)n1)c1c(F)cc(-c2ccc(C#N)cc2)cc1F [compound 5] | – | – | – | – | – | – | – | – | – | – | – | – | – | 0.0062 | CC50 (MT-4 cells [7]; [30]): 148 µM; SI (HIV-1 (IIIB) [9]): 24,067
13 | Cc1cnc(Nc2ccc(C#N)cc2)nc1Nc1c(F)cc(-c2ccc(C#N)cc2)cc1F [compound 6, reference compound] | – | > 2 | 0.0054 ± 0.0018 | 0.0014 ± 0.0003 | – | >208,333 | – | > 285 | > 2 | > 2 | 0.011 ± 0.0019 | 0.0083 ± 0.0015 | 0.016 ± 0.0053 | 0.0014 | CC50 (MT-4 cells [7]; [30]): > 285 µM; SI (HIV-1 (IIIB) [9]): > 208,333; EC50 (HIV-1 Y188L [10]): > 2 µM; EC50 [11]: > 2 µM; EC50 (HIV-1 F227L + V106A [12]): > 2 µM
